Measured values published in ChEMBL document CHEMBL3596148, “Meridianin derivatives as potent Dyrk1A inhibitors and neuroprotective agents” (Bioorg Med Chem Lett, 2015).

What was measured:
[1] = Cytotoxicity against human SH-SY5Y cells assessed as cell viability at 30 uM after 24 hrs by MTT assay relative to control; assay type: cell-based; conditions: read-out: Activity
[2] = target: RAC-alpha serine/threonine-protein kinase (Homo sapiens) (UniProt P31749); assay: Inhibition of PKBalpha (unknown origin) at 0.5 uM relative to control
[3] = target: Aurora kinase B (Homo sapiens) (UniProt Q96GD4); assay: Inhibition of Aurora B (unknown origin) at 0.5 uM relative to control
[4] = target: Glycogen synthase kinase-3 beta (Homo sapiens) (UniProt P49841); assay: Inhibition of GSK3beta (unknown origin) at 0.5 uM relative to control
[5] = target: Insulin receptor (Homo sapiens) (UniProt P06213); assay: Inhibition of IR (unknown origin) at 0.5 uM relative to control
[6] = target: Protein kinase C alpha type (Homo sapiens) (UniProt P17252); assay: Inhibition of PKCalpha (unknown origin) at 0.5 uM relative to control
[7] = target: Insulin-like growth factor 1 receptor (Homo sapiens) (UniProt P08069); assay: Inhibition of IGF-1R (unknown origin) at 0.5 uM relative to control
[8] = target: AMP-activated protein kinase, AMPK (Homo sapiens) (UniProt P54646+O43741+P54619+Q9UGJ0+Q9Y478+Q13131+Q9UGI9); assay: Inhibition of AMPK (unknown origin) at 0.5 uM relative to control; assay type: protein-complex assay
[9] = target: Cyclin-dependent kinase 2 (Homo sapiens) (UniProt P24941); assay: Inhibition of CDK2 (unknown origin) at 0.5 uM relative to control
[10] = target: Vascular endothelial growth factor receptor 1 (Homo sapiens) (UniProt P17948); assay: Inhibition of VEGFR1 (unknown origin) at 0.5 uM relative to control
[11] = target: T1, Inhibitor of nuclear factor kappa-B kinase subunit beta (Homo sapiens) (UniProt O14920); assay: Inhibition of IKKbeta (unknown origin) at 0.5 uM relative to control
T1 sequence (whole entry): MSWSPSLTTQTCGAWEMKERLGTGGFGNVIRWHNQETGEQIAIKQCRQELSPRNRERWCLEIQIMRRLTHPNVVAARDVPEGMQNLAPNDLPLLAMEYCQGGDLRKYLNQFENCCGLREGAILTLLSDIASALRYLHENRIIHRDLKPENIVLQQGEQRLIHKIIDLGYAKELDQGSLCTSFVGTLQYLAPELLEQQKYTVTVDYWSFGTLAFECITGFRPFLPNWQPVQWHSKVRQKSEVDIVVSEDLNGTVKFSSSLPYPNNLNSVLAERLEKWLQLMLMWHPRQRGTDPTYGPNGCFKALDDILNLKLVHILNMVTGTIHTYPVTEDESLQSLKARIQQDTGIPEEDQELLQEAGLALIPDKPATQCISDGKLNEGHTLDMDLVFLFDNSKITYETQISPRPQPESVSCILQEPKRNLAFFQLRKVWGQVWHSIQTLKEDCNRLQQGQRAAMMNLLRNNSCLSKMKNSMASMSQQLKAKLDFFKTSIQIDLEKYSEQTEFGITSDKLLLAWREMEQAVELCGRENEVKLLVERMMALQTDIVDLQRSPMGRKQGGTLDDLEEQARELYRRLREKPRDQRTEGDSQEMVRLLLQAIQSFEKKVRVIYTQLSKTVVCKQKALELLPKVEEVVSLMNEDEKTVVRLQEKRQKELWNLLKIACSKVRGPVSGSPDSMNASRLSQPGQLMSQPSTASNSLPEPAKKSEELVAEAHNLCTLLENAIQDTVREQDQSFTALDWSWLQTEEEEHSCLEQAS

[12] = target: RAC-beta serine/threonine-protein kinase (Homo sapiens) (UniProt P31751); assay: Inhibition of PKBbeta (unknown origin) at 0.5 uM relative to control
[13] = target: Cyclin-dependent kinase 9 (Homo sapiens) (UniProt P50750); assay: Inhibition of CDK9 (unknown origin) at 0.5 uM relative to control
[14] = target: Tyrosine-protein kinase ABL1 (Homo sapiens) (UniProt P00519); assay: Inhibition of Abl (unknown origin) at 0.5 uM relative to control
[15] = target: Casein kinase I isoform alpha (Homo sapiens) (UniProt P48729); assay: Inhibition of CK1 (unknown origin) at 0.5 uM relative to control
[16] = target: T2, Aurora kinase A (Homo sapiens) (UniProt O14965); assay: Inhibition of Aurora A (unknown origin) at 0.5 uM relative to control
T2 sequence (whole entry): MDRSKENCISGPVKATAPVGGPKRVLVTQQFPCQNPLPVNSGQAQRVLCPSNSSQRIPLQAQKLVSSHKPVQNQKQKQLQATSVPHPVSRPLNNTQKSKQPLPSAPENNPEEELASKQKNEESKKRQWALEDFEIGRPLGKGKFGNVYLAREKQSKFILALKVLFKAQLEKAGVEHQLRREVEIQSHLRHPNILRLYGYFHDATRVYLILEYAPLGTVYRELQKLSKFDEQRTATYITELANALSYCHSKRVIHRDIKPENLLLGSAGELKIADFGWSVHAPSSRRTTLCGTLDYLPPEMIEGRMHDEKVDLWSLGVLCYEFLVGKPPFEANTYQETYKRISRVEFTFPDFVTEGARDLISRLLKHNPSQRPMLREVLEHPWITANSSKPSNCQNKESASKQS

[17] = test system: SH-SY5Y; assay: cells; conditions: Homo sapiens, 24 h
[18] = test system: SH-SY5Y; assay: Neuroprotective activity against glutamate-induced neurotoxicity in human SH-SY5Y cells assessed as cell viability at 10 uM incubated for 30 mins prior to glutamate challenge measured after 24 hrs by MTT assay (reference value: 73.8 +/- 4.5%); assay type: functional; conditions: read-out: Activity
[19] = test system: SH-SY5Y; assay: Neuroprotective activity against glutamate-induced neurotoxicity in human SH-SY5Y cells assessed as cell viability at 50 uM incubated for 30 mins prior to glutamate challenge measured after 24 hrs by MTT assay (reference value: 73.8 +/- 4.5%); assay type: functional; conditions: read-out: Activity

Sequence of Casein kinase I isoform alpha (Homo sapiens) (P48729 2-337 limits assumed): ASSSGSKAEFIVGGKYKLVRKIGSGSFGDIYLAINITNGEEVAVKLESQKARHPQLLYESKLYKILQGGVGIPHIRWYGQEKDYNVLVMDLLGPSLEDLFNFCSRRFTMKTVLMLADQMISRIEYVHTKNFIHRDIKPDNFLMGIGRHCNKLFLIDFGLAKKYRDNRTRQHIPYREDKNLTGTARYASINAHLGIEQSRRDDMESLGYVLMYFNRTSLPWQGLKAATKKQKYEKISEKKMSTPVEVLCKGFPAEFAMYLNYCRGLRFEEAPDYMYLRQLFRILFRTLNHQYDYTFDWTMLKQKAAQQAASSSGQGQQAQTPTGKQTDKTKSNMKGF
Sequence of RAC-beta serine/threonine-protein kinase (Homo sapiens) (P31751 whole entry): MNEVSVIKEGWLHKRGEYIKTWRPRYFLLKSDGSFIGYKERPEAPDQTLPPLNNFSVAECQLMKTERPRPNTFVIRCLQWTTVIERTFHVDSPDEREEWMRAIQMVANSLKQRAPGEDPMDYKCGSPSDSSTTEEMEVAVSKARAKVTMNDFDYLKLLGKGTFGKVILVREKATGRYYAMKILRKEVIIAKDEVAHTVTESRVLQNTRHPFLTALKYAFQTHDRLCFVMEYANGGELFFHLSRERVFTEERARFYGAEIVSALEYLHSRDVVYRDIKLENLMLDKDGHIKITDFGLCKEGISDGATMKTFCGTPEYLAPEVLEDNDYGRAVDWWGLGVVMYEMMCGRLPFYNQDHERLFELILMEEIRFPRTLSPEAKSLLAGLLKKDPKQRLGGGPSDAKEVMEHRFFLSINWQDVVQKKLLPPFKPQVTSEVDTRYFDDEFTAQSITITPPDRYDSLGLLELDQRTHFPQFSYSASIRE
Sequence of Vascular endothelial growth factor receptor 1 (Homo sapiens) (P17948 whole entry): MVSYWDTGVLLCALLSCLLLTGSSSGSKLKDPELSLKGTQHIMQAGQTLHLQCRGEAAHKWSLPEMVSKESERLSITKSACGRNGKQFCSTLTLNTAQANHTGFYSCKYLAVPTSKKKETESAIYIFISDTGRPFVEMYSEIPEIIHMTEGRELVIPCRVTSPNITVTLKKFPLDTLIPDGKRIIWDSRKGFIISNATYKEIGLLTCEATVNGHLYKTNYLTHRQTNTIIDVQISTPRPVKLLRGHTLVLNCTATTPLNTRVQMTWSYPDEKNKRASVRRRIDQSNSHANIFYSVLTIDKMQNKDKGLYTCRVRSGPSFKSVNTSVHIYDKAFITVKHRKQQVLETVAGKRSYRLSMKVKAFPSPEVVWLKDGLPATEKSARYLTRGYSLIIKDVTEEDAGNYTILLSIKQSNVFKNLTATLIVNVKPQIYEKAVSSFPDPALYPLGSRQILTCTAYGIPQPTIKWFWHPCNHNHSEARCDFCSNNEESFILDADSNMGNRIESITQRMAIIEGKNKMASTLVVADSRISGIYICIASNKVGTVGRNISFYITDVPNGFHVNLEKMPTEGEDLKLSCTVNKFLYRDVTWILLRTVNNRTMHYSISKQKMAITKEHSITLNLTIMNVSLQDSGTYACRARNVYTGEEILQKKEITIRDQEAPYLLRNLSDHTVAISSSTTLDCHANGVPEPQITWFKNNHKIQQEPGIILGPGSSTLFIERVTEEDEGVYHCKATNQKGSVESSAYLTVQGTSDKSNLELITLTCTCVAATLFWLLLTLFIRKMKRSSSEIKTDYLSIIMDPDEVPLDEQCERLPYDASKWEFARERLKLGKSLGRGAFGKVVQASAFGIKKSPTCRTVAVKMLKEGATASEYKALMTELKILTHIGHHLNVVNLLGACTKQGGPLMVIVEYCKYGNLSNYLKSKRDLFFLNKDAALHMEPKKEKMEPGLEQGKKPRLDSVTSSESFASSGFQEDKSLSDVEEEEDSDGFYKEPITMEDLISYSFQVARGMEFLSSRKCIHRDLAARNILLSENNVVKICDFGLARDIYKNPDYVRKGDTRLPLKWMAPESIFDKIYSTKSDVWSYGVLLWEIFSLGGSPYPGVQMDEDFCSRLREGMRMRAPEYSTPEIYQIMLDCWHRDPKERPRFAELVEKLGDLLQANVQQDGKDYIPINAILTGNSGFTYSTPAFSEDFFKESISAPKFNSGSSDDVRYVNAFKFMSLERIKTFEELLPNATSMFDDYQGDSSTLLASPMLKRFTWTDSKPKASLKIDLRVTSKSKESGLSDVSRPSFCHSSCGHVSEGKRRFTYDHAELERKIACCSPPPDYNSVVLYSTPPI
Sequence of RAC-alpha serine/threonine-protein kinase (Homo sapiens) (P31749 whole entry): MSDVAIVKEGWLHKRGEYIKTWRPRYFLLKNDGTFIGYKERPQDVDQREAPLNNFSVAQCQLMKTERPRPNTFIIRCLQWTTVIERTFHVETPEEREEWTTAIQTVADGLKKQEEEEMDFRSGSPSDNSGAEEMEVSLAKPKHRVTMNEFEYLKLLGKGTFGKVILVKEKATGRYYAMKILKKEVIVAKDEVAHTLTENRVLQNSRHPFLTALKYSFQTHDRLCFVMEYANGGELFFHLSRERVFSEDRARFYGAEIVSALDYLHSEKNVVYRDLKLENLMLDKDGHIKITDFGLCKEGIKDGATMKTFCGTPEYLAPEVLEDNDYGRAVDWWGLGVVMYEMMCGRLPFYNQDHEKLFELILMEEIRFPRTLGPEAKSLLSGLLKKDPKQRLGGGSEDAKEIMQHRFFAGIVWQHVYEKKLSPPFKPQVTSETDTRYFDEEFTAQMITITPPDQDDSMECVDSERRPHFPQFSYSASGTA
Sequence of Insulin-like growth factor 1 receptor (Homo sapiens) (P08069 31-736 limits assumed): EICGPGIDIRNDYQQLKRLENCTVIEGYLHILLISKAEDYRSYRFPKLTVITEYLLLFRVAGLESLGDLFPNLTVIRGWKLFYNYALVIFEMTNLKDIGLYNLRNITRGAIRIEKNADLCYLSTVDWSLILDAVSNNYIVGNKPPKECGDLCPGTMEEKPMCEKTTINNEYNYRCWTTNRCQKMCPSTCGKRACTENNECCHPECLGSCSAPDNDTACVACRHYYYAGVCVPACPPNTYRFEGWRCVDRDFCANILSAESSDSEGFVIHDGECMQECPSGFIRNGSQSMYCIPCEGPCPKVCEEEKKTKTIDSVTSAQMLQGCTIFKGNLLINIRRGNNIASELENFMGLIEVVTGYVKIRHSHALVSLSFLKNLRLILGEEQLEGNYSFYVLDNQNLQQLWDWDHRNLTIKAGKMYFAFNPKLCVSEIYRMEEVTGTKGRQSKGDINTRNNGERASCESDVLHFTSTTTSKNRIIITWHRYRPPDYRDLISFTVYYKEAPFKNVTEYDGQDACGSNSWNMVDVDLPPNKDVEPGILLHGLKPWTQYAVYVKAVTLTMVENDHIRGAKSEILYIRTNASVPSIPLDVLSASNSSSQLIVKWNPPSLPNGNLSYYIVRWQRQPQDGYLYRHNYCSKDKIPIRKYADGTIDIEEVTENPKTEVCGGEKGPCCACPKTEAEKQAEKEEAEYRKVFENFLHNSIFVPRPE
Sequence of Insulin-like growth factor 1 receptor (Homo sapiens) (P08069 741-1367 limits assumed): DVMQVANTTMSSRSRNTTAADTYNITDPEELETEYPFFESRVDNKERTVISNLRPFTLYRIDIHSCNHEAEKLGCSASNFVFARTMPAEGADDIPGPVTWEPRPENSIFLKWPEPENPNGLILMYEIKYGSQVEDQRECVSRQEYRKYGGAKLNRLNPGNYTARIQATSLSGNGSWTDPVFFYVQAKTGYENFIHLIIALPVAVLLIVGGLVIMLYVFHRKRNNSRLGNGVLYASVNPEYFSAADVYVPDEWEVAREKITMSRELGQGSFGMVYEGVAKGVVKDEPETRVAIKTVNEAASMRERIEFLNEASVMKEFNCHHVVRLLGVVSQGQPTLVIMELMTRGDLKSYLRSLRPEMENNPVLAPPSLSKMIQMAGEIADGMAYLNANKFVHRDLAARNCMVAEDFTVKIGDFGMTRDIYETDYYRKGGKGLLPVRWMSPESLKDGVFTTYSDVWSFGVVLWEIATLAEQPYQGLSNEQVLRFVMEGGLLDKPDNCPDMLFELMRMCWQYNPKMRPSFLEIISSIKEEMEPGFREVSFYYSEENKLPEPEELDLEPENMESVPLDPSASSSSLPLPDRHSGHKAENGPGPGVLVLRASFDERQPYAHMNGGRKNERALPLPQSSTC
Sequence of Cyclin-dependent kinase 9 (Homo sapiens) (P50750 whole entry): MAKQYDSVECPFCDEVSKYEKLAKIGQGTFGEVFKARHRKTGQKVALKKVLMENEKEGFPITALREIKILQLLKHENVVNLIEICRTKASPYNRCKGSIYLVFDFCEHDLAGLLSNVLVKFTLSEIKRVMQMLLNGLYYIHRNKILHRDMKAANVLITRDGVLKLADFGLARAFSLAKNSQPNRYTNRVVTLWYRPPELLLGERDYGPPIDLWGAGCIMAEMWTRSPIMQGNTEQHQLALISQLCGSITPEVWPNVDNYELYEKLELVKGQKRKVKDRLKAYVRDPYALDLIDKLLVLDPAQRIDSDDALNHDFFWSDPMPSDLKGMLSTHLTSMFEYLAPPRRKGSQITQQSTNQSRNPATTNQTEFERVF

SMILES | viability at 24 h, 30 µM [1] [%] | further results
CCOc1ccccc1C(=O)n1cc(-c2ccnc(N)n2)c2ccccc21 | 46.6 | 
O=C1NC(c2c[nH]c3ccc(Br)cc23)Nc2ccccc21 (stereo not given) | 41.5 | 
CC(C)(C)c1ccc(S(=O)(=O)n2cc(-c3ccnc(N)n3)c3cc(Br)ccc32)cc1 | 109 | 
COc1ccc(Br)cc1S(=O)(=O)n1cc(-c2ccnc(N)n2)c2ccccc21 | 96.2 | 
COCCn1cc(-c2ccnc(N)n2)c2cc(Br)ccc21 | 75.3 | 
N#Cc1ccc(S(=O)(=O)n2cc(-c3ccnc(N)n3)c3ccccc32)cc1 | 110 | 
CN1CCN(C(=O)n2cc(-c3ccnc(N)n3)c3cc(Br)ccc32)CC1 | 91.8 | 
Cc1noc(C)c1Cn1cc(-c2ccnc(N)n2)c2cc(Br)ccc21 | 83.1 | 
CC(C)(C)c1ccc(S(=O)(=O)n2cc(-c3ccnc(N)n3)c3ccccc32)cc1 | 86.3 | 
Nc1nccc(-c2cn(Cc3ccc(Cl)s3)c3ccc(Br)cc23)n1 | 24 | 
Nc1nccc(-c2cn(S(=O)(=O)c3cccc(C(F)(F)F)c3)c3ccc(Br)cc23)n1 | 38.8 | 
Nc1nccc(-c2cn(S(=O)(=O)c3ccc4c(c3)OCCO4)c3ccc(Br)cc23)n1 | 112 | 
Nc1nccc(-c2cn(Cc3c4ccccc4cc4ccccc34)c3ccccc23)n1 | 96 | 
Nc1nccc(-c2cn(S(=O)(=O)c3cccc(C(F)(F)F)c3)c3ccccc23)n1 | 76.1 | 
Nc1nccc(-c2cn(S(=O)(=O)c3cc(C(F)(F)F)cc(C(F)(F)F)c3)c3ccccc23)n1 | 72.4 | 
Nc1nccc(-c2cn(CN3C(=O)c4ccccc4C3=O)c3ccccc23)n1 | 101 | 
Nc1nccc(-c2cn(S(=O)(=O)c3ccc([N+](=O)[O-])cc3)c3ccccc23)n1 | 56 | 
Nc1nccc(-c2cn(Cc3c4ccccc4cc4ccccc34)c3ccc(Br)cc23)n1 | 79.8 | 
COc1ccc(S(=O)(=O)n2cc(-c3ccnc(N)n3)c3cc(Br)ccc32)cc1 | 99 | 
Nc1nccc(-c2cn(S(=O)(=O)c3ccc4ccccc4c3)c3ccccc23)n1 | 61.6 | 
Nc1nccc(-c2cn(S(=O)(=O)c3ccc(C(F)(F)F)cc3)c3ccccc23)n1 | 95.6 | 
Cc1noc(C)c1Cn1cc(-c2ccnc(N)n2)c2ccccc21 | 88.5 | inhibition [2]: 10.9%; inhibition [3]: 10.1%; inhibition [4]: 6.1%; inhibition [5]: 17.7%; inhibition [6]: 36.9%; inhibition [7]: 0%; inhibition [8]: 9.5%; inhibition [9]: 0%; inhibition [10]: 13.5%; inhibition [11]: 3%; inhibition [12]: 0%; inhibition [13]: 14%; inhibition [14]: 6.3%; inhibition [15]: 22.7%; inhibition [16]: 0%
COc1ccc(S(=O)(=O)n2cc(-c3ccnc(N)n3)c3ccccc32)cc1 | 58.8 | 
Cc1c(C)c(C)c(S(=O)(=O)n2cc(-c3ccnc(N)n3)c3ccccc32)c(C)c1C | 49 | 
Cc1cc(C)c(S(=O)(=O)n2cc(-c3ccnc(N)n3)c3ccccc32)c(C)c1 | 40 | 
Nc1nccc(-c2cn(S(=O)(=O)c3ccc(C(F)(F)F)cc3[N+](=O)[O-])c3ccc(Br)cc23)n1 | 15.2 | IC50 [17]: 14 µM

SMILES | viability at 24 h, 30 µM [1] [%] | further results
Nc1nccc(-c2cn(Cc3ccc(Cl)s3)c3ccccc23)n1 | 115 | 
N#Cc1ccc(S(=O)(=O)n2cc(-c3ccnc(N)n3)c3cc(Br)ccc32)cc1 | 106 | 
Cc1c(C)c(C)c(S(=O)(=O)n2cc(-c3ccnc(N)n3)c3cc(Br)ccc32)c(C)c1C | 107 | 
Nc1nccc(-c2cn(S(=O)(=O)c3ccc([N+](=O)[O-])cc3)c3ccc(Br)cc23)n1 | 59 | 
O=C1NC(c2c[nH]c3ccccc23)Nc2ccccc21 (stereo not given) | 83.1 | 
Nc1nccc(-c2cn(S(=O)(=O)c3ccc4c(c3)OCCO4)c3ccccc23)n1 | 59.4 | 
Nc1nccc(-c2c[nH]c3ccccc23)n1 | 91.4 | inhibition [2]: 22.3%; inhibition [3]: 4.1%; inhibition [4]: 0%; inhibition [5]: 9.6%; inhibition [6]: 8.5%; inhibition [7]: 0%; inhibition [8]: 0%; inhibition [9]: 0%; inhibition [10]: 8%; inhibition [11]: 16.6%; inhibition [12]: 0%; inhibition [13]: 3.8%; inhibition [14]: 7.1%; inhibition [15]: 0%; inhibition [16]: 5.1%
Cc1ccsc1C(=O)n1cc(-c2ccnc(N)n2)c2ccccc21 | 82 | 
Nc1nccc(-c2c[nH]c3ccc(Br)cc23)n1 [MERIDIANIN C] | 92.9 | 
Nc1nccc(-c2cn(S(=O)(=O)c3ccc(OC(F)(F)F)cc3)c3ccc(Br)cc23)n1 | 74 | 
Nc1nccc(-c2cn(C(=O)c3ccccc3)c3ccccc23)n1 | 106 | 
Nc1nccc(-c2cn(S(=O)(=O)c3ccc(I)cc3)c3ccccc23)n1 | 57.5 | 
Cc1cc(C)c(S(=O)(=O)n2cc(-c3ccnc(N)n3)c3cc(Br)ccc32)c(C)c1 | 109 | 
CN1CCN(C(=O)n2cc(-c3ccnc(N)n3)c3ccccc32)CC1 | 82 | 
COc1ccc(S(=O)(=O)n2cc(-c3ccnc(N)n3)c3ccccc32)cc1OC | 127 | 
Nc1nccc(-c2cn(C(=O)c3ccccc3)c3ccc(Br)cc23)n1 | 65.1 | viability at 10 µM [18]: 93.2%; IC50 [17]: > 100 µM; viability at 50 µM [19]: 94.1%
Nc1nccc(-c2cn(S(=O)(=O)c3ccc(Br)cc3)c3ccccc23)n1 | 91.4 | 
COc1cccc(C(=O)n2cc(-c3ccnc(N)n3)c3ccccc32)c1 | 94.6 | 
O=c1[nH]c(-c2c[nH]c3ccc(I)cc23)nc2ccccc12 | 24 | 
Nc1nccc(-c2cn(S(=O)(=O)c3ccc(C(F)(F)F)cc3)c3ccc(Br)cc23)n1 | 85 | 
Nc1nccc(-c2cn(S(=O)(=O)c3ccc(F)cc3F)c3ccccc23)n1 | 99.1 | 
CC(=O)Nc1ccc(S(=O)(=O)n2cc(-c3ccnc(N)n3)c3cc(Br)ccc32)cc1 | 71.6 | 
Nc1nccc(-c2cn(S(=O)(=O)c3cc(C(F)(F)F)cc(C(F)(F)F)c3)c3ccc(Br)cc23)n1 | 76.4 | 
Nc1nccc(-c2cn(C(=O)N3CCOCC3)c3ccccc23)n1 | 97.3 | 
Nc1nccc(-c2cn(S(=O)(=O)c3ccc(Cl)cc3Cl)c3ccccc23)n1 | 55.4 | 
